Source: the supplement of paper PMC3937590

Tests used:
Test in all cases: -log10 GI50 (growth inhibition 50%) (-log10(M)); higher = more potent growth inhibition
184A1 = test system: 184A1
In short: (§1)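 Breast cancer cell lines were exposed to each compound for 72 hours at nine doses in 1:5 serial dilution, in triplicate, with a luminescence read-out against a time-zero plate. A Gompertz curve was fitted to the dose-response data by nonlinear least squares. The value is minus log10 of GI50, the molar concentration giving the set level of growth inhibition. Values equal to the top dose carry a < qualifier.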

184B5 = test system: 184B5
In short: as §1

BT20 = test system: BT20
In short: as §1

BT474 = test system: BT474
In short: as §1

BT549 = test system: BT549
In short: as §1

HCC1187 = test system: HCC1187
In short: as §1

HCC1806 = test system: HCC1806
In short: as §1

HCC1954 = test system: HCC1954
In short: as §1

HCC3153 = test system: HCC3153
In short: as §1

HCC38 = test system: HCC38
In short: as §1

HCC70 = test system: HCC70
In short: as §1

HS578T = test system: HS578T
In short: as §1

MCF10A = test system: MCF10A
In short: as §1

MCF12A = test system: MCF12A
In short: as §1

MCF7 = test system: MCF7
In short: as §1

MDAMB134VI = test system: MDAMB134VI
In short: as §1

MDAMB157 = test system: MDAMB157
In short: as §1

MDAMB231 = test system: MDAMB231
In short: as §1

MDAMB415 = test system: MDAMB415
In short: as §1

SUM225CWN = test system: SUM225CWN
In short: as §1

Row | Structure (SMILES) | -log10 GI50 (BT20) | -log10 GI50 (BT474) | -log10 GI50 (BT549) | -log10 GI50 (HCC1187) | -log10 GI50 (HCC1806) | -log10 GI50 (HCC1954) | -log10 GI50 (HCC3153) | -log10 GI50 (HCC38) | -log10 GI50 (MCF7) | -log10 GI50 (MDAMB134VI) | -log10 GI50 (MDAMB157) | -log10 GI50 (MDAMB231) | -log10 GI50 (MDAMB415) | -log10 GI50 (184A1) | -log10 GI50 (184B5) | -log10 GI50 (HCC70) | -log10 GI50 (HS578T) | -log10 GI50 (MCF10A) | -log10 GI50 (MCF12A) | -log10 GI50 (SUM225CWN)
1 | CO[C@H]1C[C@@H]2CC[C@@H](C)[C@@](O)(O2)C(=O)C(=O)N2CCCC[C@H]2C(=O)O[C@H]([C@H](C)C[C@@H]2CC[C@@H](O)[C@H](OC)C2)CC(=O)[C@H](C)/C=C(\C)[C@@H](O)[C@@H](OC)C(=O)[C@H](C)C[C@H](C)/C=C/C=C/C=C/1C [Rapamycin] | 7.17 | 7.62 | 5.33 | 7.78 | 4.01 | 8.45 | 5.25 | 7.31 | 6.84 | 9.57 | < 3.78 | 5.78 | 8.69 | 6.72 | < 4.48 | 6.92 | 4.35 | 6.34 | 7.08 | 7.97
2 | O=S(=O)(CC1CS1)c1ccc(Oc2ccccc2)cc1 (stereo not given) [SB-3CT] | 4.21 | 4.99 | 5.17 | 4.83 | < 4 | < 4 | < 4 | 4.31 | < 4 | < 4 | < 3.78 | < 3.78 | 4.77 | < 3.78 | < 3.78 | < 3.78 | 4.42 | 4.05 | < 3.78 | < 4
3 | CCN(CC)CCNC(=O)c1c(C)[nH]c(/C=C2\C(=O)Nc3ccc(F)cc32)c1C [Sunitinib malate] | 4.79 | 4.78 | 5.29 | 5.26 | 5.3 | 5.26 | 4.96 | 5.24 | 5.23 | 4.97 | 5.21 | 5.44 | 5.25 | 5.37 | 5.28 | 5.6 | 5.37 | 5.27 | 5.19 | 5.21
4 | Cc1cc(Nc2cc(N3CCN(C)CC3)nc(Sc3ccc(NC(=O)C4CC4)cc3)n2)n[nH]1 [VX-680] | 5.34 | 4.84 | 5.75 | 6.89 | 4.76 | 5.32 | 4.72 | 6.74 | 5.08 | 6.03 | 5.43 | 4.95 | 5.58 | 5.64 | 5.74 | 5.6 | 6.57 | 6.04 | 6.33 | 4.76

Now from value to compound, other results behind:

Row | -log10 GI50 (BT20) | -log10 GI50 (BT474) | -log10 GI50 (BT549) | -log10 GI50 (HCC1187) | -log10 GI50 (HCC1806) | -log10 GI50 (HCC1954) | -log10 GI50 (HCC3153) | -log10 GI50 (HCC38) | -log10 GI50 (MCF7) | -log10 GI50 (MDAMB134VI) | -log10 GI50 (MDAMB157) | -log10 GI50 (MDAMB231) | -log10 GI50 (MDAMB415) | Structure (SMILES) | -log10 GI50 (184A1) | -log10 GI50 (184B5) | -log10 GI50 (HCC70) | -log10 GI50 (HS578T) | -log10 GI50 (MCF10A) | -log10 GI50 (MCF12A) | -log10 GI50 (SUM225CWN)
5 | 4.2 | 4.16 | 4.08 | 4.49 | 4.23 | 4.29 | 4.31 | 4.07 | 4.19 | 4.54 | 3.78 | 3.84 | 3.96 | CNC(=O)c1cc(Oc2ccc(NC(=O)Nc3ccc(Cl)c(C(F)(F)F)c3)cc2)ccn1 [Sorafenib] | 5.53 | 5.48 | 4.45 | < 3 | 4.31 | 4.62 | 4.6
6 | < 3.88 | < 3.88 | < 3.88 | 4.42 | < 3.88 | 4.52 | < 3.88 | 3.95 | < 3.88 | < 3.88 | < 3.88 | < 3.88 | < 3.88 | N#Cc1c(-c2ccccc2)cc(-c2cc(Br)ccc2O)[nH]c1=O [TCS PIM-11] | 5.16 | 5.61 | 4.47 | < 4.18 | 4.57 | 4.36 | 4.53
7 | 4.68 | 5.01 | 5.13 | 5.32 | 4.97 | 4.96 | 4.62 | 5.22 | 5.18 | 5.2 | 4.68 | 5.26 | 4.73 | CC(/C=C/C(=O)NO)=C\[C@@H](C)C(=O)c1ccc(N(C)C)cc1 [Trichostatin A] | 4.73 | 4.34 | 4.84 | 4.77 | 4.82 | 4.71 | 4.86
8 | 2.44 | 3.03 | 2.57 | 2.78 | 2.58 | 2.52 | 2.55 | 3.05 | 2.64 | 3.12 | 2.68 | 2.16 | 3.06 | CCCC(CCC)C(=O)O [Valproic acid] | 3 | 3.07 | 2.99 | 2.32 | 2.97 | 2.74 | 2.76
9 | 3.74 | 4.27 | 3.83 | 4.79 | 3.89 | 3.95 | 3.77 | 4.47 | 4.19 | 4.4 | 4.01 | 4.11 | 3.96 | O=C(CCCCCCC(=O)Nc1ccccc1)NO [Vorinostat] | 3.87 | 3.84 | 4.46 | 3.53 | 3.68 | 3.77 | 3.84
